Test results as given in ChEMBL document CHEMBL2429724, “Computational POM evaluation of experimental in vitro Trypanosoma cruzi and Mycobacterium tuberculosis inhibition of heterocyclic-2-carboxylic acid (3-cyano-1,4-di-noxidequinoxalin-2-yl)amide derivatives” (Med Chem Res, 2013).
In brackets after ≈: the same amount, converted by molar mass.

Legend:
[1] = system: Mycobacterium tuberculosis; experiment: Antimicrobial activity against Mycobacterium tuberculosis H37Rv ATCC 27294 by microplate Alamar Blue assay; type: functional
[2] = system: Trypanosoma cruzi; experiment: Antimicrobial activity against benznidazole-resistant epimastigotes of Trypanosoma cruzi Tulahuen 2 assessed as growth inhibition at 25 uM measured on day 5 by spectrophotometry; type: functional; settings: Tulahuen 2, 120 h, read-out: GI
[3] = system: Trypanosoma cruzi; experiment: Antimicrobial activity against benznidazole-resistant epimastigotes of Trypanosoma cruzi Tulahuen 2 assessed as growth inhibition measured on day 5 by spectrophotometry; type: functional, organism-based; settings: Tulahuen 2, 120 h

Compound | MIC [1] [µg/mL] | inhibition of growth at 25 µM [2] [%] | MIC [3] [µM]
N#Cc1c(NC(=O)c2ccco2)[n+]([O-])c2cc(C(F)(F)F)ccc2[n+]1[O-] | 17.9 (≈ 49.1 µM) | – | –
N#Cc1c(NC(=O)c2ccc([N+](=O)[O-])o2)[n+]([O-])c2cc(C(F)(F)F)ccc2[n+]1[O-] | 12.8 (≈ 31.3 µM) | – | –
N#Cc1c(NC(=O)c2cccs2)[n+]([O-])c2cc(F)c(F)cc2[n+]1[O-] | – | 92 | –
N#Cc1c(NC(=O)c2ccc([N+](=O)[O-])o2)[n+]([O-])c2ccc(Cl)cc2[n+]1[O-] | 5.81 (≈ 15.5 µM) | – | –
Cc1cc2c(cc1C)[n+]([O-])c(NC(=O)c1ccc([N+](=O)[O-])s1)c(C#N)[n+]2[O-] | – | 36.4 | –
N#Cc1c(NC(=O)c2ccco2)[n+]([O-])c2cc(F)c(F)cc2[n+]1[O-] | 4.7 (≈ 14.1 µM) | 53 | –
N#Cc1c(NC(=O)c2cccs2)[n+]([O-])c2ccccc2[n+]1[O-] | 5.38 (≈ 17.2 µM) | 19 | –
COc1ccc2c(c1)[n+]([O-])c(C#N)c(NC(=O)c1ccc([N+](=O)[O-])o1)[n+]2[O-] | 14.5 (≈ 39 µM) | – | –
N#Cc1c(NC(=O)c2ccc([N+](=O)[O-])o2)[n+]([O-])c2ccc(F)cc2[n+]1[O-] | 21.7 (≈ 60.4 µM) | – | –
COc1ccc2c(c1)[n+]([O-])c(C#N)c(NC(=O)c1ccc([N+](=O)[O-])s1)[n+]2[O-] | 9.54 (≈ 24.6 µM) | – | –
Cc1cc2c(cc1C)[n+]([O-])c(NC(=O)c1cccs1)c(C#N)[n+]2[O-] | 1.19 (≈ 3.5 µM) | 13.5 | –
N#Cc1c(NC(=O)c2ccc([N+](=O)[O-])s2)[n+]([O-])c2cc(C(F)(F)F)ccc2[n+]1[O-] | 1.7 (≈ 4 µM) | – | –
N#Cc1c(NC(=O)c2ccc([N+](=O)[O-])s2)[n+]([O-])c2cc(F)c(F)cc2[n+]1[O-] | – | 9.2 | –
Cc1ccc2c(c1)[n+]([O-])c(C#N)c(NC(=O)c1cccs1)[n+]2[O-] | 2.08 (≈ 6.37 µM) | 16.4 | –
Cc1ccc2c(c1)[n+]([O-])c(C#N)c(NC(=O)c1ccco1)[n+]2[O-] | 8.84 (≈ 28.5 µM) | 11.6 | –
COc1ccc2c(c1)[n+]([O-])c(C#N)c(NC(=O)c1cccs1)[n+]2[O-] | 48.9 (≈ 143 µM) | 15.1 | –
N#Cc1c(NC(=O)c2cccs2)[n+]([O-])c2ccc(F)cc2[n+]1[O-] | 1.47 (≈ 4.45 µM) | 27.5 | –
N#Cc1c(NC(=O)c2ccc([N+](=O)[O-])s2)[n+]([O-])c2ccc(Cl)cc2[n+]1[O-] | – | 15 | –
N#Cc1c(NC(=O)c2cccs2)[n+]([O-])c2ccc(Cl)cc2[n+]1[O-] | 2.47 (≈ 7.12 µM) | – | –
N#Cc1c(NC(=O)c2cccs2)[n+]([O-])c2ccc(C(F)(F)F)cc2[n+]1[O-] | 9.18 (≈ 24.1 µM) | – | –
N#Cc1c(NC(=O)c2ccc([N+](=O)[O-])o2)[n+]([O-])c2cc(F)c(F)cc2[n+]1[O-] | 22.2 (≈ 58.7 µM) | – | –

Compound | MIC [1] [µg/mL] | inhibition of growth at 25 µM [2] [%] | MIC [3] [µM]
N#Cc1c(NC(=O)c2ccco2)[n+]([O-])c2ccc(Cl)cc2[n+]1[O-] | 15.4 (≈ 46.4 µM) | – | –
N#Cc1c(NC(=O)c2ccc([N+](=O)[O-])s2)[n+]([O-])c2ccccc2[n+]1[O-] | 2.88 (≈ 8.06 µM) | 0 | –
N#Cc1c(NC(=O)c2ccc([N+](=O)[O-])s2)[n+]([O-])c2ccc(C(F)(F)F)cc2[n+]1[O-] | 6 (≈ 14.1 µM) | – | –
N#Cc1c(NC(=O)c2ccco2)[n+]([O-])c2ccc(F)cc2[n+]1[O-] | – | 19.8 | –
Cc1ccc2c(c1)[n+]([O-])c(C#N)c(NC(=O)c1ccc([N+](=O)[O-])s1)[n+]2[O-] | – | 11.4 | –
Cc1ccc2c(c1)[n+]([O-])c(C#N)c(NC(=O)c1ccc([N+](=O)[O-])o1)[n+]2[O-] | – | 0 | –
Cc1cc2c(cc1C)[n+]([O-])c(NC(=O)c1ccc([N+](=O)[O-])o1)c(C#N)[n+]2[O-] | – | 0 | –
N#Cc1c(NC(=O)c2ccc([N+](=O)[O-])s2)[n+]([O-])c2cc(Cl)c(Cl)cc2[n+]1[O-] | – | 29.8 | –
N#Cc1c(NC(=O)c2ccc([N+](=O)[O-])o2)[n+]([O-])c2ccccc2[n+]1[O-] | – | 0.7 | –
Cc1cc2c(cc1C)[n+]([O-])c(NC(=O)c1ccco1)c(C#N)[n+]2[O-] | – | 13.1 | –
CC1CS(=O)(=O)CCN1/N=C/c1ccc([N+](=O)[O-])o1 (configuration not stated) [NIFURTIMOX] | – | 100 | 7.7 (≈ 2.21 µg/mL)
N#Cc1c(NC(=O)c2ccc([N+](=O)[O-])o2)[n+]([O-])c2ccc(C(F)(F)F)cc2[n+]1[O-] | 14.4 (≈ 35.2 µM) | – | –
CO[C@H]1/C=C/O[C@@]2(C)Oc3c(C)c(O)c4c(O)c(c(/C=N/N5CCN(C)CC5)c(O)c4c3C2=O)NC(=O)/C(C)=C\C=C\[C@H](C)[C@H](O)[C@@H](C)[C@@H](O)[C@@H](C)[C@H](OC(C)=O)[C@@H]1C [RIFAMPIN] | 0.125 (≈ 0.152 µM) | – | –
N#Cc1c(NC(=O)c2ccc([N+](=O)[O-])s2)[n+]([O-])c2ccc(F)cc2[n+]1[O-] | – | 2.5 | –
N#Cc1c(NC(=O)c2cccs2)[n+]([O-])c2cc(Cl)c(Cl)cc2[n+]1[O-] | 13.6 (≈ 35.7 µM) | – | –
N#Cc1c(NC(=O)c2ccco2)[n+]([O-])c2cc(Cl)c(Cl)cc2[n+]1[O-] | – | 31.6 | –
N#Cc1c(NC(=O)c2ccco2)[n+]([O-])c2ccccc2[n+]1[O-] | 0.977 (≈ 3.3 µM) | 3.1 | –
N#Cc1c(NC(=O)c2ccco2)[n+]([O-])c2ccc(C(F)(F)F)cc2[n+]1[O-] | 24.2 (≈ 66.5 µM) | – | –
COc1ccc2c(c1)[n+]([O-])c(C#N)c(NC(=O)c1ccco1)[n+]2[O-] | – | 9.5 | –
N#Cc1c(NC(=O)c2ccc([N+](=O)[O-])o2)[n+]([O-])c2cc(Cl)c(Cl)cc2[n+]1[O-] | 13.6 (≈ 33.1 µM) | – | –
N#Cc1c(NC(=O)c2cccs2)[n+]([O-])c2cc(F)ccc2[n+]1[O-] | 4.58 (≈ 13.9 µM) | – | –
